Test results: patent US5773424A, “Treatment of toxoplasmosis” (priority 1994, dated 1998)

molecular target: T. gondii adenosine kinase (Toxoplasma gondii, UniProt Q9TVW2); assay: biochemical; conditions: not given
Method: Preparation of cytosol extracts. For the structure activity relationships studies, approximately 5×10^8 T. gondii were suspended in 1.2 ml of 50 mM N-2-hydroxyethylpiperazine-N'-2-ethanesulfonic acid (HEPES)-Cl (pH 8.0)/1 mM dithiothreitol and homogenized for 30 seconds at setting 10, using a Brinnmann Instruments Polytron homogenizer fitted with a PTA 7K1 probe. The homogenate was then centrifuged at approximately 116,000 g for 1 hour at 5° and the supernatant (cytosol extract) collected and used as the enzyme source. Fresh cytosol extracts were prepared for each experiment.
Adenosine kinase assay. T. gondii adenosine kinase activity was measured by following the formation of [^14 C]AMP from [^14 C]adenosine and ATP. […] Therefore, the standard reaction mixture contained 50 mM HEPES-Cl (pH 8.0), 1 mM dithiothreitol, 5 μM [8-^14 C]adenosine (45 Ci/mol), 0.5 mM ATP, 0.5 mM MgCl2, 25 μM (+)-EHNA or 100 μM (±)-EHNA,10-30 μl of cytosol extract (approximately 3-10 μg of protein), and either 0, 0.1, 0.25, 0.5 or 1.0 mM of the compound to be tested, in a final volume of 150 μl.
Reactions were started by the addition of [8-^14 C]adenosine, incubated at 37° for 10 minutes and terminated by placing the reaction tubes in a boiling water bath for 2 minutes. Precipitated proteins were removed by centrifugation in a microcentrifuge (approximately 13,000 g) for 5 minutes, and a 15 μl aliquot of the resulting supernatant was mixed with 5 μl of a solution containing 10 mM each of AMP and adenosine. This mixture was then spotted on silica gel thin layer chromatography plates which were developed with a mixture of chloroform/methanol/acetic acid (16:3:1). […] The substrate and product spots (which accounted for all of the radioactivity on the plates) were identified by UV quenching, cut out, and the radioactivity quantitated by liquid scintillation counting in 20 ml of Scintilene, using a Packard 460 scintillation counter. […] Enzyme velocity was calculated by multiplying the fraction of AMP formed from adenosine times the amount of adenosine in the assay, and dividing by the incubation time.
Determination and significance of AppKi values. AppKi values were used to determine the relative degree of binding of compounds to adenosine kinase as compared to adenosine. AppKi values were estimated from Dixon plots of the data (1/.nu. versus [I]), using a computer program with least squares fitting according to the general principles of Cleland (Cleland, W W, The statistical analysis of enzyme kinetic data. Adv. Enzymol. 29:1-32, 1967). The program was written by Dr. Sungman Cha (Brown University, Providence, R.I.) and modified to fit IBM BASIC by Dr. Fardos N. M. Naguib. […] It should be noted, however, that the type of inhibition (i.e., competitive, noncompetitive, or uncompetitive) produced by the compounds was not determined, nor were the compounds evaluated as substrates for T. gondii adenosine kinase.

Sequence of T. gondii adenosine kinase (Q9TVW2 whole entry): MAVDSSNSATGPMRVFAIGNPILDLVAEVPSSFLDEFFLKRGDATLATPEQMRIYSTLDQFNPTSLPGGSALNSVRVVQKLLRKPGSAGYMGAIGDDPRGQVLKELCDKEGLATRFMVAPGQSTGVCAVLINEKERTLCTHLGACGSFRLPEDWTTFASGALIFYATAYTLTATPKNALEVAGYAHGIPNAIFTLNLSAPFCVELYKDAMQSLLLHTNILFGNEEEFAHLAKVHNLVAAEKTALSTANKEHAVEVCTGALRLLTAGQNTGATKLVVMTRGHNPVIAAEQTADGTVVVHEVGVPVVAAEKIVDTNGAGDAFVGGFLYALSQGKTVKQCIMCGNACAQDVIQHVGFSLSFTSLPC

SMILES	Ki [µM]
OC[C@H]1O[C@@H](n2cc(Br)c3c(NO)ncnc32)[C@H](O)[C@@H]1O [Compound 70, N^6 -Hydroxy-7-bromo-7-deazaadenosine]	37 ± 9
CNc1ncnc2c1c(C(N)=S)cn2[C@@H]1O[C@H](CO)[C@@H](O)[C@H]1O [Compound 71, N^6 -Methyl-7-thiocarboxyamido-7-deazaadenosine]	150 ± 1
Nc1ncnc2c1cnn2[C@@H]1O[C@H](CO)[C@@H](O)[C@H]1O [Compound 72, 8-Aza-7-deazaadenosine]	1700
NC(=NO)c1c(Br)n([C@@H]2O[C@H](CO)[C@@H](O)[C@H]2O)c2ncnc(N)c12 [Compound 73, 8-Bromo-7-carboxyamidoxime-7-deazaadenosine]	210 ± 30
NNc1c(C(N)=O)c2c(N)ncnc2n1[C@@H]1O[C@H](CO)[C@@H](O)[C@H]1O [Compound 74, 8-Hydrazino-7-carboxamido-7-deazaadenosine (6-Hydrazinosangivamycin)]	160 ± 9
OC[C@H]1O[C@@H](n2ncc3cncnc32)[C@H](O)[C@@H]1O [Compound 75, 8-Aza-7-deazapurine riboside]	5100
CCSc1ncnc2c1cnn2[C@@H]1O[C@H](CO)[C@@H](O)[C@H]1O [Compound 76, 8-Aza-6-ethylmercapto-7-deazapurine riboside]	210 ± 100
O=c1[nH]cnc2c1cnn2[C@@H]1O[C@H](CO)[C@@H](O)[C@H]1O [Compound 77, 8-Aza-6-hydroxy-7-deazapurine riboside (allopurinol)]	15000
CSc1ncnc2c1cnn2[C@@H]1O[C@H](CO)[C@@H](O)[C@H]1O [Compound 79, 8-Aza-6-methylmercapto-7-deazapurine riboside]	140 ± 30
NC(=O)c1cn([C@@H]2O[C@H](CO)[C@@H](O)[C@H]2O)c2nc[n+]([O-])c(N)c12 [Compound 80, 7-Carboxamido-7-deazaadenosine-N^1-oxide]	780 ± 70
O=c1[nH]cnc2c([C@@H]3O[C@H](CO)[C@@H](O)[C@H]3O)n[nH]c12 [Compound 82, 8-Aza-9-deazainosine (formycin B)]	3100
CSc1ncnc2c1nnn2[C@@H]1O[C@H](CO)[C@@H](O)[C@H]1O [Compound 83, 8-Aza-6-methylmercaptopurine riboside]	130 ± 40
OC[C@H]1O[C@@H](n2cnc3c2N=CNC[C@H]3O)[C@H](O)[C@@H]1O [Compound 85, Coformycin]	2000
Nc1ncnc2c1ncn2[C@@H]1O[C@H](CO)[C@@H](O)[C@@H]1O [Compound 86, Adenine arabinoside (ara-A)]	3000
Nc1ncnc2c1ncn2[C@H]1C[C@H](O)[C@@H](CO)O1 [Compound 87, 2'-Deoxyadenosine]	4200
Nc1ncnc2c1ncn2[C@@H]1O[C@H](CO)C[C@H]1O [Compound 90, 3'-Deoxyadenosine (Cordycepin)]	1100
Nc1ncnc2c1ncn2[C@@H]1O[C@H](CO)[C@H](O)[C@H]1O [Compound 92, Adenine xyloside]	1400
C[C@H]1O[C@@H](n2cnc3c(N)ncnc32)[C@H](O)[C@@H]1O [Compound 93, 5'-Deoxyadenosine]	40 ± 3
Nc1ncnc2c1ncn2[C@@H]1O[C@H](CCl)[C@@H](O)[C@H]1O [Compound 95, 5'-Chloro-5'-deoxyadenosine]	210 ± 10
CSC[C@H]1O[C@@H](n2cnc3c(N)ncnc32)[C@H](O)[C@@H]1O [Compound 98, 5'-Methylthio-5'-deoxyadenosine]	530 ± 230
Nc1ncnc2c1ncn2[C@@H]1O[C@H](C(=O)O)[C@@H](O)[C@H]1O [Compound 99, adenosine 5'-Carboxylic acid (5'-Carboxyladenosine)]	1100
Nc1ncnc2c1ncn2[C@@H]1O[C@H](COC(=O)CCC(=O)O)[C@@H](O)[C@H]1O [Compound 100, 5'-Succinyladenosine (adenosine 5'-succinate)]	920 ± 600
CC(C)CC[C@H]1O[C@@H](n2cnc3c(N)ncnc32)[C@H](O)[C@@H]1O [Compound 101, 5'-Isobutyl-5'-deoxyadenosine]	410 ± 90
Nc1ncnc2c1ncn2[C@H]1CC[C@@H](CO)O1 [Compound 106, 2',3'-Dideoxyadenosine]	5500
COc1ccc(C2OC3C(CO)OC(n4cnc5c(N)ncnc54)C3O2)cc1 (stereo not shown) [Compound 108, 2',3'-O-p-Anisylidene adenosine]	1400

same assay, conditions: AppKi for inhibition of T. gondii adenosine kinase, 5 μM adenosine; ± range, at least two estimations

SMILES	Ki [µM]
Nc1ncnc2c1ncn2[C@@H]1O[C@H](CI)[C@@H](O)[C@H]1O [Compound 96, 5'-Iodo-5'-deoxyadenosine]	230 ± 10
Nc1ncnc2c1ncn2[C@@H]1O[C@H](COS(=O)(=O)O)[C@@H](O)[C@H]1O [Compound 97, 5'-Sufonyl adenosine (adenosine 5'-monosulfate)]	210 ± 60
Nc1ncnc2c1ncn2[C@@H]1O[C@H](C(=O)NC2CC2)[C@@H](O)[C@H]1O [Compound 104, 5'-N-(Cyclopropyl)carboxamidoadenosine]	1100
Nc1ncnc2c1ncn2[C@@H]1O[C@H](COC(=O)c2ccc(S(=O)(=O)F)cc2)[C@@H](O)[C@H]1O [Compound 105, 5'-(p-Fluorosulfonylbenzoyl)adenosine]	340 ± 40

same assay, conditions: read-out: AppKi for inhibition of T. gondii adenosine kinase; 5 μM adenosine; ± range, at least two estimations

SMILES	Ki [µM]
Nc1ncnc2c1ncn2C1O[C@H](CO)[C@H](O)[C@@H]1O (stereo partly shown) [Compound 107, Adenine lyxoside]	1300

same assay, conditions: read-out: Inhibition of T. gondii adenosine kinase

SMILES	inhibition at 1000 µM [%]
OC[C@H]1O[C@@H](n2ncc3c(=S)[nH]cnc32)[C@H](O)[C@@H]1O [Compound 78, 8-Aza-6-mercapto-7-deazapurine riboside]	< 10
OC[C@H]1O[C@@H](n2cnc3ccccc32)[C@H](O)[C@@H]1O [Compound 84, Benzimidazole riboside ("1,3-dideazapurine riboside")]	< 10
CO[C@@H]1[C@H](O)[C@@H](CO)O[C@H]1n1cnc2c(N)ncnc21 [Compound 88, 2'-O-Methyladenosine]	< 10
Cc1ccc(S(=O)(=O)O[C@@H]2[C@H](O)[C@@H](CO)O[C@H]2n2cnc3c(N)ncnc32)cc1 [Compound 89, 2'Tosyladenosine]	< 10
CO[C@H]1[C@@H](O)[C@H](n2cnc3c(N)ncnc32)O[C@@H]1CO [Compound 91, 3'-O-Methyladenosine]	< 10
CNC(=O)[C@H]1O[C@@H](n2cnc3c(N)ncnc32)[C@H](O)[C@@H]1O [Compound 102, 5'-N-(Methyl)carboxamidoadenosine]	< 10
CCNC(=O)[C@H]1O[C@@H](n2cnc3c(N)ncnc32)[C@H](O)[C@@H]1O [Compound 103, 5'-N-(Ethyl)carboxamidoadenosine]	< 10
CC(=O)O[C@@H]1[C@H](OC(C)=O)[C@@H](CO)O[C@H]1n1cnc2c(N)ncnc21 [Compound 109, 2',3'-Di-O-acetyladenosine]	< 10
CC(=O)OC[C@H]1O[C@@H](n2cnc3c(N)ncnc32)[C@H](O)[C@@H]1OC(C)=O [Compound 110, 3',5'-Di-O-acetyladenosine]	< 10

same assay, conditions: relative to adenosine

SMILES	Effect on binding to T. gondii adenosine kinase, in words
CO[C@@H]1[C@H](O)[C@@H](CO)O[C@H]1n1cnc2c(N)ncnc21 [Compound 88, 2'-O-Methyladenosine]	abolishes
CO[C@H]1[C@@H](O)[C@H](n2cnc3c(N)ncnc32)O[C@@H]1CO [Compound 91, 3'-O-Methyladenosine]	abolishes

same assay, conditions: relative to reference compound adenosine

SMILES	Decrease in binding to T. gondii adenosine kinase [fold]
Nc1ncnc2c1ncn2[C@@H]1O[C@H](CO)[C@@H](O)[C@@H]1O [Compound 86, Adenine arabinoside (ara-A)]	430
Nc1ncnc2c1ncn2[C@H]1C[C@H](O)[C@@H](CO)O1 [Compound 87, 2'-Deoxyadenosine]	600
Nc1ncnc2c1ncn2[C@@H]1O[C@H](CO)[C@H](O)[C@H]1O [Compound 92, Adenine xyloside]	200
C[C@H]1O[C@@H](n2cnc3c(N)ncnc32)[C@H](O)[C@@H]1O [Compound 93, 5'-Deoxyadenosine]	5.7
Nc1ncnc2c1ncn2C1O[C@H](CO)[C@H](O)[C@@H]1O (stereo partly shown) [Compound 107, Adenine lyxoside]	190
